Reference: patent US20070213301A1 (ACHILLION PHARMACEUTICALS, INC., priority 2006, published 2007)

System: HCV replicon
Assay: HCV replicon replication assay (NPTII ELISA)
Type: cell-based, Hepatitis C virus (Huh-7 cells)
Settings: Hepatitis C virus, Huh-7, 72 h, inhibition of HCV replicon replication in Huh-7 HCV replicon-containing cells, three days incubation, NPT level by ELISA; read-out: EC50
Experimental: Compounds claimed herein are tested for the ability to inhibit viral replication of the Hepatitis C replicon in cultured cells in which the HCV replicon construct has been incorporated. The HCV replicon system was described by Bartenschlager, et. al (Science, 285, pp. 110-113 (1999)). The replicon system is predictive of in vivo anti-HCV activity; compounds that are active in humans uniformly evidence activity in the replicon assay.
In this assay HCV replicon containing cells are treated with different concentrations of the test compound to ascertain the ability of the test compound to suppress replication of the HCV replicon. As a positive control, HCV replicon-containing cells are treated with different concentrations of interferon alpha, a known inhibitor of HCV replication. The replicon assay system includes Neomycin Phosphotransferase (NPT) as a component of the replicon itself in order to detect the transcription of replicon gene products in the host cell. Cells in which the HCV replicon is actively replicating have high levels of NPT; the level of NPT is proportional to HCV replication. […] The NPT level of each sample is measured using a captured ELISA.
The HCV replicon contains, 5′-3′, the HCV-IRES, the neomycin phosphotransferase (neo) gene, the IRES of encephalomyocarditis virus, which directs translation of HCV sequences NS3 to NS5B, and the 3′-NTR. The sequence of the HCV replicon has been deposited in GenBank (Accession no. AJ242652).
The replicon is transfected into Huh-7 cells using standard methods such as electroporation.
The cells are then seeded onto 96-well plates at a density of 6000-7500 cells/100 microliters/well (6-7.5×10^5 cells/10 ml/plate). The plates are then incubated at 37° C. in a 5% CO2 incubator.
HCV replicon-containing cells are rinsed with once PBS once; 2 mls of trypsin are then added. Cells are incubated at 37° C. in a 5% CO2 incubator for 3-5 minutes. 10 mls of complete medium is added to stop the reaction. Cells are blown gently, put into a 15 ml tube, and spun at 1200 rpm for four minutes. The trypsin/medium solution is removed and 5 mls of medium (500 ml DMEM (high glucose)) from BRL catalog #12430-054; 50 mls 10% FBS, 5% Geneticin G418 (50 mg/ml, BRL catalog #10131-035), 5 ml MEM non-essential amino acids (100× BRL #11140-050) and 5 ml pen-strep (BRL #15140-148) is added. The cells and media are mixed carefully
Cells are plated with screening medium (500 ml DMEM (BRL #21063-029), 50 ml FBS (BRL #10082-147) and 5 ml MEM non-essential amino acid (BRL #11140-050) at 6000-7500 cells/100 μl/well of 96 well plate (6-7.5×10^5 cells/10 ml/plate). Plates are placed into 37° C. 5% CO2 incubator overnight.
The following morning, drugs (test compounds or interferon alpha) are diluted in 96 well U bottom plates with media or DMSO/media, depending on the final concentration chosen for screening. Generally for 6 concentrations of each test compounds ranging from 10 micromolar to 0.03 micromolar are applied. 100 μl of the test compound dilution is placed in wells of the 96 well plate containing the HCV replicon cells. Media without drug is added to some wells as a negative controls. DMSO is known to affect cell growth. Therefore, if drugs diluted in DMSO are used, all wells, including negative control (media only) and positive control (interferon alpha) wells, must contain the same concentration of DMSO, for single dose screening. The plates are incubated at 37° C. in a humidified 5% CO2 environment for three days.
On day four, the NTPII assay is quantitated. The medium is poured from the plates and the plates are washed once in 200 μl of PBS. The PBS is then decanted and the plates tapped in a paper towel to remove any remaining PBS. Cells are fixed in situ with 100 μl/well of pre-cooled (−20° C.) methanol:acetone (1:1) and the plates are placed at −20° C. for 30 minutes.
The fixing solution is poured from the plates and the plates allowed to air-dry completely (approximately one hour). […]

| Structure (SMILES) | EC50 |
| --- | --- |
| CCCCCOc1ccc(N(C(=O)C(C)C)c2nc(-c3ccc(CN(C)C)nc3)cs2)cc1C(F)(F)F [Compound 19, N-(4-(6-((dimethylamino)methyl)pyridin-3-yl)thiazol-2-yl)-N-(4-(pentyloxy)-3-(trifluoromethyl)phenyl)isobutyramide] | 1000 to 10000 nM |
| CCCCOc1ccc(N(C(N)=O)c2nc(-c3ccc4c(c3)NC(=O)CO4)cs2)cc1C(F)(F)F [Compound 134, 1-(4-butoxy-3-(trifluoromethyl)phenyl)-1-(4-(3-oxo-3,4-dihydro-2H-benzo[b][1,4]oxazin-6-yl)thiazol-2-yl)urea] | 1000 to 10000 nM |
| CCCCCN(C)c1ccc(N(C(=O)c2cc(C)on2)c2nc(-c3cccnc3)cs2)cc1C(F)(F)F [Compound 52, 5-methyl-N-(4-(methyl(pentyl)amino)-3-(trifluoromethyl)phenyl)-N-(4-(pyridin-3-yl)thiazol-2-yl)isoxazole-3-carboxamide] | < 1000 nM |
| CCCCCCCCOc1ccc(N(CC(N)=O)c2nc(-c3ccc(OCC(N)=O)cc3)cs2)cc1 [Compound 82, 2-((4-(4-(2-amino-2-oxoethoxy)phenyl)thiazol-2-yl)(4-(octyloxy)phenyl)amino)acetamide] | > 10000 nM |
| CCCCCOc1ccc(N(C(=O)C(C)C)c2nc(CN(C)C)cs2)cc1C(F)(F)F [Compound 21, N-(4-((dimethylamino)methyl)thiazol-2-yl)-N-(4-(pentyloxy)-3-(trifluoromethyl)phenyl)isobutyramide] | 1000 to 10000 nM |
| CCCCCOc1ccc(N(C(=O)C(=O)OC)c2nc(CN(C)C)cs2)cc1C(F)(F)F [Compound 23, methyl 2-((4-((dimethylamino)methyl)thiazol-2-yl)(4-(pentyloxy)-3-(trifluoromethyl)phenyl)amino)-2-oxoacetate] | 1000 to 10000 nM |
| CCCCCCCCOc1ccc(N(C(=O)OC)c2nc(-c3ccc(F)c(F)c3)cs2)cc1 [Compound 59, methyl 4-(3,4-difluorophenyl)thiazol-2-yl(4-(octyloxy)phenyl)carbamate] | 1000 to 10000 nM |
| Cc1ccc(-c2csc(N(C(N)=O)c3ccc(OCC(C)C)c(C(F)(F)F)c3)n2)cn1 [Compound 147, 1-(4-isobutoxy-3-(trifluoromethyl)phenyl)-1-(4-(6-methylpyridin-3-yl)thiazol-2-yl)urea] | < 1000 nM |
| CCCCCCCCOc1ccc(N(C(=O)NC2CCCCC2)c2nc(-c3cccnc3)cs2)cc1 [Compound 88, 3-cyclohexyl-1-(4-(octyloxy)phenyl)-1-(4-(pyridin-3-yl)thiazol-2-yl)urea] | 1000 to 10000 nM |
| CCCCCCCCOc1ccc(N(C(=O)C(=O)OC)c2nc(-c3ccc(Cl)s3)cs2)cc1 [Compound 97, methyl 2-((4-(5-chlorothiophen-2-yl)thiazol-2-yl)(4-(octyloxy)phenyl)amino)-2-oxoacetate] | < 1000 nM |
| CCCCCOc1ccc(N(C(=O)NCC)c2nc(-c3cccnc3)cs2)cc1C(F)(F)F [Compound 75, 3-ethyl-1-(4-(pentyloxy)-3-(trifluoromethyl)phenyl)-1-(4-(pyridin-3-yl)thiazol-2-yl)urea] | < 1000 nM |
| CCCCOc1ccc(N(C(N)=O)c2nc(-c3ccc(O)c(C(N)=O)c3)cs2)cc1C(F)(F)F [Compound 133, 5-(2-(1-(4-butoxy-3-(trifluoromethyl)phenyl)ureido)thiazol-4-yl)-2-hydroxybenzamide] | < 1000 nM |
| CCCCCOc1ccc(N(C)c2nc(-c3ccc(CN4CCOCC4)nc3)cs2)cc1C(F)(F)F [Compound 8, N-methyl-4-(6-(morpholinomethyl)pyridin-3-yl)-N-(4-(pentyloxy)-3-(trifluoromethyl)phenyl)thiazol-2-amine] | 1000 to 10000 nM |
| CCCCCCCCOc1ccc(N(C(N)=O)c2nc(-c3cccnc3)cs2)cc1 [Compound 72, 1-(4-(octyloxy)phenyl)-1-(4-(pyridin-3-yl)thiazol-2-yl)urea] | < 1000 nM |
| CCCCCCCCOc1ccc(N(C(N)=O)c2nc(-c3ccncc3)cs2)cc1 [Compound 80, 1-(4-(octyloxy)phenyl)-1-(4-(pyridin-4-yl)thiazol-2-yl)urea] | > 10000 nM |
| NC(=O)N(c1ccc(OCC2CCCCC2)c(F)c1)c1nc(-c2ccc(F)c(F)c2)cs1 [Compound 120, 1-(4-(cyclohexylmethoxy)-3-fluorophenyl)-1-(4-(3,4-difluorophenyl)thiazol-2-yl)urea] | < 1000 nM |
| CC(C)COc1ccc(N(C(N)=O)c2nc(-c3cccnc3)cs2)cc1C(F)(F)F [Compound 151, 1-(4-isobutoxy-3-(trifluoromethyl)phenyl)-1-(4-(pyridin-3-yl)thiazol-2-yl)urea] | < 1000 nM |
| NC(=O)N(c1ccc(OCC2CCCCC2)c(F)c1)c1nc(-c2ccc(F)cc2)cs1 [Compound 117, 1-(4-(cyclohexylmethoxy)-3-fluorophenyl)-1-(4-(4-fluorophenyl)thiazol-2-yl)urea] | 1000 to 10000 nM |
| CCCCCCCCc1ccc(N(C(=O)OCOP(=O)(O)O)c2nc(-c3cccnc3)c(F)s2)cc1C(F)(F)F [Compound 187, phosphonooxymethyl 5-fluoro-4-(pyridin-3-yl)thiazol-2-yl(4-octyl-3-(trifluoromethyl)phenyl)carbamate] | < 1000 nM |
| CCCCCCCCOc1ccc(N(C(=O)COC(C)=O)c2nc(-c3cccnc3)c(F)s2)cc1C(F)(F)F [Compound 168, 2-((5-fluoro-4-(pyridin-3-yl)thiazol-2-yl)(4-(octyloxy)-3-(trifluoromethyl)phenyl)amino)-2-oxoethyl acetate] | < 1000 nM |
| CCCCCOc1ccc(N(C(C)=O)c2nc(-c3ccc(F)cc3)cs2)cc1C(F)(F)F [Compound 1, N-(4-(4-fluorophenyl)thiazol-2-yl)-N-(4-(pentyloxy)-3-(trifluoromethyl)phenyl)acetamide] | < 1000 nM |
| NC(=O)c1cc(-c2csc(N(C(N)=O)c3ccc(OCC4CCCCC4)c(F)c3)n2)ccc1O [Compound 115, 5-(2-(1-(4-(cyclohexylmethoxy)-3-fluorophenyl)ureido)thiazol-4-yl)-2-hydroxybenzamide] | 1000 to 10000 nM |
| CCCCCCCCOc1ccc(N(C(=O)COCCOCCOC)c2nc(-c3cccnc3)c(F)s2)cc1C(F)(F)F [Compound 172, N-(5-fluoro-4-(pyridin-3-yl)thiazol-2-yl)-2-(2-(2-methoxyethoxy)ethoxy)-N-(4-(octyloxy)-3-(trifluoromethyl)phenyl)acetamide] | < 1000 nM |
| CCCCCN(C)c1ccc(N(C(=O)C(=O)OC)c2nc(-c3cccnc3)cs2)cc1C(F)(F)F [Compound 53, methyl 2-((4-(methyl(pentyl)amino)-3-(trifluoromethyl)phenyl)(4-(pyridin-3-yl)thiazol-2-yl)amino)-2-oxoacetate] | < 1000 nM |
| CCCCCOc1ccc(N(C(=O)C(N)=O)c2nc(-c3cccnc3)cs2)cc1C(F)(F)F [Compound 153, N1-(4-(pentyloxy)-3-(trifluoromethyl)phenyl)-N1-(4-(pyridin-3-yl)thiazol-2-yl)oxalamide] | < 1000 nM |
| CCCCCCCCOc1ccc(N(C(C)=O)c2nc(-c3cccnc3)c(F)s2)cc1C(F)(F)F [Compound 177, N-(5-fluoro-4-(pyridin-3-yl)thiazol-2-yl)-N-(4-(octyloxy)-3-(trifluoromethyl)phenyl)acetamide] | < 1000 nM |
| CCCCCCCCOc1ccc(N(C(=O)NCC)c2nc(-c3cccnc3)cs2)cc1 [Compound 73, 3-ethyl-1-(4-(octyloxy)phenyl)-1-(4-(pyridin-3-yl)thiazol-2-yl)urea] | > 10000 nM |
